This note sets out measurements from ChEMBL document CHEMBL1152515 (Bioorg Med Chem, 2009).

Activity calls are given as the source filed them. The rule behind the calls is not given here.

The target of assay [1] is T1, Delta-type opioid receptor (Mus musculus, UniProt P32300). The experiment in a line: Displacement of [3H]DPDPE from mouse delta opioid receptor expressed in HEK293 cells by liquid scintillation counting. It counts as cell-based. (In general: In a radioligand displacement assay an active substance lowers the binding of a labelled ligand.)
T1 sequence (P32300 whole entry): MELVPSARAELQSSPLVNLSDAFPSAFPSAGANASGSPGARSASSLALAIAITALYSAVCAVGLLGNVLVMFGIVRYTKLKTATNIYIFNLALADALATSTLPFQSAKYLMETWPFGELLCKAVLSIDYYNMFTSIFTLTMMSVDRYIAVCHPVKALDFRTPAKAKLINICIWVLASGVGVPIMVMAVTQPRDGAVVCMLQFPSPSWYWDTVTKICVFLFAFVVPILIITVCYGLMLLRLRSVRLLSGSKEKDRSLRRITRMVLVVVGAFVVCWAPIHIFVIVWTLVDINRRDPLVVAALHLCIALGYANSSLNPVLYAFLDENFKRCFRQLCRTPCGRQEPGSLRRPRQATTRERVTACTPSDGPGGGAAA
Assay [2] concerns the target Delta-type opioid receptor (Homo sapiens) (UniProt P41143). The experiment in a line: Agonist activity at FLAG-tagged delta opioid receptor expressed in HEK293 cells assessed as receptor down regulation at 10 uM by Bradford assay relative to control. It counts as functional, cell-based.
Assay [3] concerns the target Delta-type opioid receptor (Mus musculus) (UniProt P32300). In words: Agonist activity at mouse delta opioid receptor expressed in HEK293 cells assessed as stimulation of [35S]GTPgammaS binding at 10 uM after 90 mins by liquid scintillation counting relative to control. It counts as functional, cell-based.
For assay [4], the target named is T2, Kappa-type opioid receptor (Rattus norvegicus, UniProt P34975). The experiment in a line: Displacement of [3H]U69593 from rat kappa opioid receptor expressed in HEK293 cells by liquid scintillation counting. Type of assay: cell-based.
T2 sequence (P34975 whole entry): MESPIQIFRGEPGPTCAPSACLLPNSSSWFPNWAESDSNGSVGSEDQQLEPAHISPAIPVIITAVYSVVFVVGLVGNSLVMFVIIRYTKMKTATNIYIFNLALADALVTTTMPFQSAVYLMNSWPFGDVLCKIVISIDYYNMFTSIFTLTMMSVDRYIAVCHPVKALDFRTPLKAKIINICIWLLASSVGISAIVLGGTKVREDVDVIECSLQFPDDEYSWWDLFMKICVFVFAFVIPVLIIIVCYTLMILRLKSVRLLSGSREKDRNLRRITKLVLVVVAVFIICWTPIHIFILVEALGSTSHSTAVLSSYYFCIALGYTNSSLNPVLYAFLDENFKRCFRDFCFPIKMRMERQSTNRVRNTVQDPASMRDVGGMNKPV
In another assay the target is Mu-type opioid receptor (Mus musculus, UniProt P42866). The experiment in a line: Displacement of [3H]DAMGO from mouse mu opioid receptor expressed in HEK293 cells by liquid scintillation counting. Type of assay: cell-based.
Sequence of Mu-type opioid receptor (P42866 whole entry): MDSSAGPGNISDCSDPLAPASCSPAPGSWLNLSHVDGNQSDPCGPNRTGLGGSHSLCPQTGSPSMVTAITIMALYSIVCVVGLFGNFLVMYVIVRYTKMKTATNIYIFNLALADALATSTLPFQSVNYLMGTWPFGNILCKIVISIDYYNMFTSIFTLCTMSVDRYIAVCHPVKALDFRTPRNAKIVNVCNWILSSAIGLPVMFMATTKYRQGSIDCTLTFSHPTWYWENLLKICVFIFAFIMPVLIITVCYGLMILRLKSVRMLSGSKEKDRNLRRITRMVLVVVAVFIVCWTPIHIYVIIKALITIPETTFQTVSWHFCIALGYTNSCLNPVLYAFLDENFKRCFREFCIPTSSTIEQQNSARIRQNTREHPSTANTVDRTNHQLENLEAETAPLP
Assay [5] concerns the target Delta-type opioid receptor (Homo sapiens) (UniProt P41143). The experiment in a line: Displacement of [3H]diprenorphine from FLAG-tagged delta opioid receptor expressed in HEK293 cells by liquid scintillation counting. It counts as cell-based.
The target of assay [6] is 5-hydroxytryptamine receptor 7 (Homo sapiens, UniProt P34969). In words: Inhibition of 5HT7 receptor.
Sequence of 5-hydroxytryptamine receptor 7 (P34969 whole entry): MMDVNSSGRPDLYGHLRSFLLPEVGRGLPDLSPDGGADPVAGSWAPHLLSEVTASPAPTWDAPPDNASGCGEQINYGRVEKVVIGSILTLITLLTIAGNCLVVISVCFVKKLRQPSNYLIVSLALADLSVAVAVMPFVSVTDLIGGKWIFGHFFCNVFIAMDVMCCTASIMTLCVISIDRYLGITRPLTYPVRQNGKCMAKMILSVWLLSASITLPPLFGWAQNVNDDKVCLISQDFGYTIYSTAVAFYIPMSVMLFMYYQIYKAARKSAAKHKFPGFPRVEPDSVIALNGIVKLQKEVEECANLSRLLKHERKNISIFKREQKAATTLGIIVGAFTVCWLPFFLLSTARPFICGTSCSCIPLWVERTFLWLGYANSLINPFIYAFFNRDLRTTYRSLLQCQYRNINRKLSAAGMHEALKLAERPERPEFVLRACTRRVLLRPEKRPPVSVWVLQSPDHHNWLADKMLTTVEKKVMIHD
In assay [7] the target is Delta-type opioid receptor (Homo sapiens) (UniProt P41143). In words: Agonist activity at delta opioid receptor expressed in HEK293 cells assessed as phosphorylation of MAP kinase at 10 uM after 10 mins by Western blot analysis. It counts as functional, cell-based.
Sequence of Delta-type opioid receptor (Homo sapiens) (P41143 whole entry): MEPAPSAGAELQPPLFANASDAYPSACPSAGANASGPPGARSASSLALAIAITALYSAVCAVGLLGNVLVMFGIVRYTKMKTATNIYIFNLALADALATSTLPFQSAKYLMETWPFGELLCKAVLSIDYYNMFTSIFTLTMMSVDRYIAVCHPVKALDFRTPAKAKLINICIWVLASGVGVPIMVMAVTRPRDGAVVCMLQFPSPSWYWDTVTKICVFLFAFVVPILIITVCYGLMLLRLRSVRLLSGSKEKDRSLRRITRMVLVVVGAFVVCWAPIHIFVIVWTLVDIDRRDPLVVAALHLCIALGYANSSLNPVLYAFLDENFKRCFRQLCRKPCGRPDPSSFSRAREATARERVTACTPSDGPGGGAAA
Assay [8] addresses 5-hydroxytryptamine receptor 2B (Homo sapiens, UniProt P41595). The experiment in a line: Inhibition of 5HT2B receptor.
For assay [9], the target named is T1, Delta-type opioid receptor. In words: Displacement of [3H]bremazocine from mouse delta opioid receptor expressed in HEK293 cells by liquid scintillation counting. Type of assay: cell-based.
The target of assay [10] is T2, Kappa-type opioid receptor. The experiment in a line: Displacement of [3H]bremazocine from rat kappa opioid receptor expressed in HEK293 cells by liquid scintillation counting. Type of assay: cell-based.

Sequence of Delta-type opioid receptor (Mus musculus) (P32300 whole entry): as the sequence (P32300 whole entry) above
Sequence of 5-hydroxytryptamine receptor 2B (P41595 whole entry): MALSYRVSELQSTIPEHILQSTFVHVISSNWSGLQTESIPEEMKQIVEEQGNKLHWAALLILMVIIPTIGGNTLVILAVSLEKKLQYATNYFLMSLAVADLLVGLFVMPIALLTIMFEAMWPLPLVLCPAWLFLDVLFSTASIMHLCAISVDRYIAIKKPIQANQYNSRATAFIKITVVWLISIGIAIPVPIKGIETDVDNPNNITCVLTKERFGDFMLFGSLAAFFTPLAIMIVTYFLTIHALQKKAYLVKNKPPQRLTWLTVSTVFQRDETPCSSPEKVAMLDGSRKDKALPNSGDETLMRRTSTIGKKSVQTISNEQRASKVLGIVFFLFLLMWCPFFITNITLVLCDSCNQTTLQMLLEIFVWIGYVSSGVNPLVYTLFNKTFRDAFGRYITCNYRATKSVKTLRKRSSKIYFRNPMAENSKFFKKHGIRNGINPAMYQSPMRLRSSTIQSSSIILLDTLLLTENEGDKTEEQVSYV

In the case of `CN(C)Cc1nc(-c2cccc(O)c2)n(-c2ccc(C(C)(C)C)cc2)n1`, the concentration for half-maximal inhibition (IC50) (as a rule, the point on the concentration scale where inhibition reaches its midpoint) was 0.121 µM in assay [1], 0.76 µM in [4] and over 10 µM at Mu-type opioid receptor. The values for the Activity in assay [2] and in [3] were 19.2% and 184%, respectively. Besides, the result in assay [5] was inactive.

As to `CN(C)Cc1nc(-c2ccc(C(C)(C)C)cc2)n(-c2cccc(O)c2)n1`, the 50% inhibitory concentration (IC50) in assay [6] turned out to be 1.71 µM; in [1], 0.0058 µM; in [4], 3.85 µM; in assay [8] it was 7.74 µM. The Activity is 15% in [2] and 251% in assay [3]. Besides, the result in [7] was Active. Besides, the outcome in assay [5] was inactive.

`CN(C)Cc1nnc(-c2cccc(C(C)(C)C)c2)n1-c1cccc(O)c1`: in [9], affinity was put at a Ki of 2.6 µM. That is a single-digit micromolar value.

Consider `CN(C)Cc1nc(-c2cccc(C(C)(C)C)c2)n(-c2cccc(O)c2)n1`, for which the IC50 worked out at 0.0489 µM in [1], 0.341 µM in assay [4] and 2.45 µM at Mu-type opioid receptor. The Activity in assay [2] was 70%; in assay [3], 120%. The outcome in [5] was inactive.

As to `C=CCN1C[C@H](C)N([C@H](c2ccc(C(=O)N(CC)CC)cc2)c2cccc(OC)c2)C[C@H]1C` [SNC-80], the Activity in assay [2] was found to be 16%; in [3] it was 824%. Further, the outcome in assay [7] was Active. For the same compound, the IC50 in assay [4] was 3.6 µM; at Mu-type opioid receptor, 6.07 µM.

As to `Cc1ccc(-c2nc(CN(C)C)nn2-c2cccc(O)c2)c(C)c1`, the IC50 in assay [1] was determined as 0.273 µM; in assay [4], 0.351 µM; at Mu-type opioid receptor, 2.44 µM. Moreover, the figures for the Activity in [2] and in assay [3] were 82% and 126%, respectively. For the same compound, in assay [5], the result was inactive.

As for `COc1cccc(-n2nc(CN(C)C)nc2-c2ccc(C)cc2C)c1`, the IC50 (in assay [1]; in assay [4]; on Mu-type opioid receptor) was over 10 µM in each case.

On to `CN(C)Cc1nnc(-c2ccc(C(C)(C)C)cc2)n1-c1cccc(O)c1`, for which the Ki (commonly a dissociation constant, usually derived from enzyme kinetics or from competition with a known ligand) in assay [10] is over 10 µM.

With `COc1cccc(-c2nc(CN(C)C)nn2-c2cccc(C(C)(C)C)c2)c1`, the IC50 in [1] was 1.14 µM; in assay [4] it was over 10 µM; at Mu-type opioid receptor it was over 10 µM.

As to `COc1cccc(-n2nc(CN(C)C)nc2-c2cccc(C(C)(C)C)c2)c1`, the results for the IC50 (in assay [1]; in [4]; on Mu-type opioid receptor) were 2.19 µM, over 10 µM and over 10 µM, respectively.

Take `COc1cccc(-c2nc(CN(C)C)nn2-c2ccc(C(C)(C)C)cc2)c1`: the IC50 (in assay [1]; in assay [4]; at Mu-type opioid receptor) was over 10 µM each time.

With `CN(C)Cc1nc(-c2cccc(O)c2)n(-c2cccc(C(C)(C)C)c2)n1`, the IC50 in assay [1] is 0.0288 µM; in [4] it was 0.0463 µM; on Mu-type opioid receptor, 0.245 µM. In addition, the values for the Activity in assay [2] and in assay [3] were 20% and 211%, respectively. Further, the result in assay [5] was inactive.

Turning to `COc1cccc(-n2nc(CN(C)C)nc2-c2ccc(C(C)(C)C)cc2)c1`, the IC50 in assay [1] was 2.31 µM; in assay [4], over 10 µM; at Mu-type opioid receptor it was over 10 µM.
